How the values were obtained:
AMV DNA polymerase [1] = assay: Fidelity of in vitro DNA synthesis (error frequency) with AMV DNA polymerase copying synthetic polynucleotide templates; conditions: for Class: Table 1, classes 1-3 not defined
Description: In this invention, the ability of carcinogens to decrease the fidelity of in vitro DNA synthesis will be used to screen for carcinogenic or mutagenic agents. The system uses synthetic polynucleotides of defined composition which may be copied in the test tubes with procaryotic, eucaryotic or viral DNA polymerases. The use of synthetic polynucleotides of defined composition allows the measurement of the simultaneous incorporation of the correct, complementary nucleotide and an incorrect, non-complementary nucleotide. The correct nucleotide is labeled with [α-^32 P] of low specific activity and the incorrect nucleotide is labeled with [^3 H] of high specific activity. Through this double labeled reaction it is possible to determine the simultaneous incorporation of both nucleotides and thus to determine an error frequency. The error frequency may be defined as the ratio of the incorrect/correct nucleotide incorporation. Agents which increase this error frequency may be scored as positive. […] Agents which score positive would be checked using different templates to underscore the positive results. In this system different polymerases will be used as well as different templates. One would expect that most carcinogens would change the fidelity of DNA synthesis with different polymerases as well as with different templates though this need not be the case.
Each assay will consist of a polymerase, a polynucleotide template that only contains one or two nucleotides, a complementary nucleotide and a non-complementary nucleotide as well as magnesium. Both of the nucleotides will be labeled by radioactive precursors and the ratio between the two is to be used for a measure of error frequency in the system. In instances where a template requires two complementary nucleotides, only one will be radioactively labeled.
Reactions (total volume 0.05 ml) which measured complementary nucleotide incorporation contained 50 mM Tris-HCL (pH 8.0), 20 mM KCl, 5 mM dithiothreitol, 5 mM MgCl2, 2μg BSA, […] [α-^32 P] -dTTP (60 dpm/pmole), 1μg poly (A).oligo (dT) (1:1.5 mass ratio), and 0.45 μg of AMV DNA polymerase. For simultaneous quantitation of complementary and non-complementary nucleotide incorporation each reaction was modified to contain 26μM [α-^32 P]dTTP (12 dpm/pmole) and 23μM [^3 H]-dCTP (50,000 dpm/pmole). […] Metals were added directly to the reaction mixture as aqueous solutions of chloride salts. All reactions were incubated for 60 min. at 37° C. Incorporation of radioactive nucleotides into an acid-insoluble and alkali-resistant product was determined by using the precipitation-solubilization procedure as described by Battula and Loeb. All experiments were performed in triplicate and the averages were determined.
In order to determine the effect of different metals on the accuracy of DNA replication, metal cations were added as chloride salts directly to the polymerase reaction. In these experiments, poly (A).oligo (dT) was the template-primer and the simultaneous incorporation of complementary nucleotide, [α-^32 P]-dTMP, and the non-complementery nucleotide, [^3 H]-dCMP, was determined.
The effect of metal salts on the fidelity of DNA synthesis was examined by testing each of the metal salts at a minimum of seven different concentrations.

AMV DNA polymerase [2] = assay: Metal requirements for catalysis by AMV DNA polymerase; type: biochemical, avian myeloblastosis virus; conditions: poly (A).oligo (dT)
Method: (§1) All known DNA polymerases require either Mg^2+ or Mn^2+ as an added divalent cation for activity. AMV DNA polymerase used Mg^2+ as an added divalent cation and the maximum rate of polymerization with poly (A).oligo (dT) was attained at 5 mM Mg^2+. […] Thymidine monophosphate incorporation with Be^2+ was less than 0.3% of that obtained with 5 mM Mg^2+.

[3] = known status of the compound; cited from earlier work
[4] = species as printed in the value; cited from earlier work
several DNA polymerases = type: biochemical; conditions: preliminary results
Method: as §1

[5] = tested on: sea urchin nuclear DNA polymerase; assay: Fidelity of DNA synthesis with sea urchin nuclear DNA polymerase; type: biochemical; conditions: template poly (dA).oligo (dT)
Description: It is one of 15 carcinogens officially listed by the U.S. government as possibly being carcinogenic in humans.

[6] = 2 mM added cation + Mg^2+ 5 mM, poly (A).oligo (dT)
[7] = 5 mM added cation + Mg^2+ 5 mM, poly (A).oligo (dT)
[8] = 10 mM added cation + Mg^2+ 5 mM, poly (A).oligo (dT)
[9] = Beryllium Chloride 1 mM, poly (A) . oligo (dT), non-complementary rGTP
[10] = Beryllium Chloride 1 mM, poly (C) . oligo (dG), non-complementary dATP
[11] = Beryllium Chloride 1 mM, poly d(A-T), non-complementary dCTP
[12] = Beryllium Chloride 2 mM, poly (A) . oligo (dT), non-complementary rGTP
[13] = Beryllium Chloride 2 mM, poly (C) . oligo (dG), non-complementary dATP
[14] = Beryllium Chloride 3 mM, poly d(A-T), non-complementary dCTP
[15] = Beryllium Chloride 4 mM, poly (C) . oligo (dG), non-complementary dATP
[16] = Beryllium Chloride 5 mM, poly (A) . oligo (dT), non-complementary rGTP
[17] = Beryllium Chloride 5 mM, poly (C) . oligo (dG), non-complementary dATP
[18] = Beryllium Chloride 5 mM, poly d(A-T), non-complementary dCTP
[19] = Beryllium Chloride 10 mM, poly (A) . oligo (dT), non-complementary rGTP

## [Be+2].[Cl-].[Cl-] [BeCl2, beryllium chloride]
AMV DNA polymerase [1]; [6]
  Complementary Nucleotide (pmoles dTMP): 291 pmol
  Non-Complementary Nucleotide (pmoles dCMP): 0.372 pmol
AMV DNA polymerase [1]; 2 mM added cation + Mg^2+ 5 mM, poly (A).oligo (dT), dCMP/dTMP
  Error Frequency: 1/782
AMV DNA polymerase [1]; [7]
  Complementary Nucleotide (pmoles dTMP): 133 pmol
  Non-Complementary Nucleotide (pmoles dCMP): 0.294 pmol
AMV DNA polymerase [1]; 5 mM added cation + Mg^2+ 5 mM, poly (A).oligo (dT), dCMP/dTMP
  Error Frequency: 1/453
AMV DNA polymerase [1]; [8]
  Complementary Nucleotide (pmoles dTMP): 8.6 pmol
  Non-Complementary Nucleotide (pmoles dCMP): 0.114 pmol
AMV DNA polymerase [1]; 10 mM added cation + Mg^2+ 5 mM, poly (A).oligo (dT), dCMP/dTMP
  Error Frequency: 1/75
AMV DNA polymerase [1]; [9]
  Complementary Nucleotide Incorporation: 568 pmol
  Error Frequency: 1/6104
  Non-Complementary Nucleotide Incorporation: 0.093 pmol
AMV DNA polymerase [1]; [10]
  Complementary Nucleotide Incorporation: 181 pmol
  Error Frequency: 1/1649
  Non-Complementary Nucleotide Incorporation: 0.110 pmol
AMV DNA polymerase [1]; [11]
  Complementary Nucleotide Incorporation: 209 pmol
  Error Frequency: 1/1306
  Non-Complementary Nucleotide Incorporation: 0.160 pmol
AMV DNA polymerase [1]; [12]
  Complementary Nucleotide Incorporation: 503 pmol
  Error Frequency: 1/2704
  Non-Complementary Nucleotide Incorporation: 0.186 pmol
AMV DNA polymerase [1]; [13]
  Complementary Nucleotide Incorporation: 81 pmol
  Error Frequency: 1/1025
  Non-Complementary Nucleotide Incorporation: 0.079 pmol
AMV DNA polymerase [1]; [14]
  Complementary Nucleotide Incorporation: 137 pmol
  Error Frequency: 1/979
  Non-Complementary Nucleotide Incorporation: 0.140 pmol
AMV DNA polymerase [1]; [15]
  Complementary Nucleotide Incorporation: 57 pmol
  Error Frequency: 1/919
  Non-Complementary Nucleotide Incorporation: 0.062 pmol
AMV DNA polymerase [1]; [16]
  Complementary Nucleotide Incorporation: 128 pmol
  Error Frequency: 1/487
  Non-Complementary Nucleotide Incorporation: 0.263 pmol
AMV DNA polymerase [1]; [17]
  Complementary Nucleotide Incorporation: 64 pmol
  Error Frequency: 1/831
  Non-Complementary Nucleotide Incorporation: 0.077 pmol
AMV DNA polymerase [1]; [18]
  Complementary Nucleotide Incorporation: 97 pmol
  Error Frequency: 1/689
  Non-Complementary Nucleotide Incorporation: 0.140 pmol
AMV DNA polymerase [1]; [19]
  Complementary Nucleotide Incorporation: 52 pmol
  Error Frequency: 1/149
  Non-Complementary Nucleotide Incorporation: 0.349 pmol
AMV DNA polymerase [1]; template poly (A).oligo (dT)
  Class: 1
  Metal Concentration which yielded the largest observed change in error rate: 10 mM
AMV DNA polymerase [1]; poly (A).oligo (dT), dTMP complementary, dCMP non-complementary
  effect on error frequency (in words): error frequency increased
AMV DNA polymerase [1]; various templates
  effect on the fidelity of DNA synthesis (in words): decreases the fidelity
AMV DNA polymerase [2]; Be^2+ in the absence of Mg^2+, 60 min
  Thymidine monophosphate incorporation relative to that obtained with 5 mM Mg^2+: less than 0.3%
AMV DNA polymerase [2]; absence of Mg^2+, Be^2+ up to 15 mM
  ability to substitute for Mg^2+ as added divalent cation: did not result in detectable poly (dT) synthesis
[3]
  Carcinogen or Mutagen: +
[4]
  carcinogenicity in animals: induces pulmonary carcinomas in monkey and osteogenic sarcomas in rabbits

## [Cl-].[Cl-].[Co+2] [CoCl2]
AMV DNA polymerase [1]; template poly (C).oligo (dG)
  Class: 1
  Metal Concentration which yielded the largest observed change in error rate: 4 mM
AMV DNA polymerase [1]; various templates
  effect on the fidelity of DNA synthesis (in words): alter the fidelity
Several DNA polymerases
  metal activator function: serve as metal activators with several DNA polymerases
[3]
  Carcinogen or Mutagen: +

## [Cl][Ni][Cl] [NiCl2]
AMV DNA polymerase [1]; template poly (C).oligo (dG)
  Class: 1
  Metal Concentration which yielded the largest observed change in error rate: 8 mM
AMV DNA polymerase [1]; various templates
  effect on the fidelity of DNA synthesis (in words): alter the fidelity
Several DNA polymerases
  metal activator function: serve as metal activators with several DNA polymerases

## O=C1CCO1 [β-propiolactone]
AMV DNA polymerase [1]; template poly (dA).oligo (dT)
  effect on the fidelity of DNA synthesis (in words): decreases the fidelity
[5]
  effect on the fidelity of DNA synthesis (in words): decreases the fidelity
[4]
  carcinogenicity in animals: carcinogen in mice, rats and hamsters

— patent US4072574A, “System for in vitro assay for mutagenicity and/or carcinogenicity of chemicals or other exogenous agents” (priority 1976, dated 1978)
